Common to all, as to assay: cells
Parameters in all cases: species or system NCI-60 human tumour cell lines; NCI-60 five-dose growth inhibition screen, sulforhodamine B protein stain
(In general: Sulforhodamine B stains cellular protein and so reports cell mass.)

The test system of one assay is A498. The following applies: Homo sapiens, A498, 48 h. The procedure: (§1) All the newly synthesised 28 compounds were selected for single-dose testing. NCI60 single-dose testing is performed in all 60 cell lines according to the reported assay (National Cancer Institute, https://dtp.cancer.gov/) (National Cancer Institute https://dtp.cancer.gov/discovery_development/nci-60/), compounds were dissolved in DMSO: glycerol […] and are stored in a −70 °C freezer. The prepared compounds were added at single concentration of 1 0^−5 M and the culture was incubated for 48 h. End point determinations were made with a protein binding dye, sulforhodamine B (SRB). The human tumour cell lines were derived from nine different cancer types: leukaemia, melanoma, lung, colon, central nervous system (CNS), ovarian, renal, prostate, and breast cancers. Dose–response curves for these compounds were created by plotting the percentage growth (PGs or % growth) against log10 of the corresponding concentration for every cell line. Three response parameters, GI50 (Median Growth Inhibitory Concentration), TGI (Total Growth Inhibitory Concentration), and LC50 (Median Lethal Concentration) were calculated[54] (National Cancer Institute, https://dtp.cancer.gov/discovery_development/nci-60/) (National Cancer Institute, https://dtp.cancer.gov/)[55] for compounds 5a and 6a. […] Furthermore, the average sensitivity of all cell lines towards the compound is termed as the full panel mean graph midpoints (MG-MID). The ratio obtained by dividing the full panel mean graph midpoints (MG-MID) concentration by the individual subpanel MG-MID concentrations (obtained as the average sensitivity of all cell lines of a particular subpanel towards the test compound) is considered a criterion for the compound selectivity towards the corresponding cell line. Ratios greater than 6 indicate high selectivity while ratios between 3 and 6 refer to moderate selectivity whereas compounds not meeting either of these criteria were rated non-selective[56].

The test system of another assay is BT-549. The following applies: Homo sapiens, BT-549, 48 h. The procedure:
as §1

The next assay relates to CCRF-CEM. The note with it: Homo sapiens, CCRF-CEM, 48 h. The procedure:
as §1

The next assay has as its system HCC-2998. The following applies: Homo sapiens, HCC 2998, 48 h. As to the method: as §1
In a further assay the test system is HOP-62. The following applies: Homo sapiens, HOP-62, 48 h. As to the method: as §1
Another assay relates to HOP-92. The following applies: Homo sapiens, HOP-92, 48 h. The procedure:
as §1

The subject of a further assay is HS 578T. The following applies: Homo sapiens, Hs-578T, 48 h. As to the method: as §1
Another assay relates to LOX IMVI. The note with it: Homo sapiens, LOX IMVI, 48 h. As to the method: as §1
A further assay deals with M14. The following applies: Homo sapiens, M14, 48 h. As to the method: as §1
The next assay deals with MDA-MB-435. The following applies: Homo sapiens, MDA-MB-435, 48 h. The procedure:
as §1

The test system of a further assay is MOLT-4. The note with it: Homo sapiens, MOLT-4, 48 h. The procedure:
as §1

The subject of a further assay is NCI-H226. The following applies: Homo sapiens, NCI-H226, 48 h. The procedure:
as §1

The subject of another assay is OVCAR-5. The note with it: Homo sapiens, OVCAR-5, 48 h. As to the method: as §1
A further assay concerns OVCAR-8. The note with it: Homo sapiens, OVCAR-8, 48 h. As to the method: as §1
The next assay has as its system PC-3. The following applies: Homo sapiens, PC-3, 48 h. As to the method: as §1
The test system of the next assay is SF-268. The following applies: Homo sapiens, SF-268, 48 h. As to the method:
as §1

The next assay concerns SK-MEL-2. The following applies: Homo sapiens, SK-MEL-2, 48 h. As to the method:
as §1

Read-outs that look alike come from different tables or passages of the source.

As a reminder, the GI50 is the concentration at which growth is held to half of that of the control. `N=C(NO)C1=C(N)Oc2c(ccc3ccccc23)C1c1ccccc1` (stereo not shown) [5a, 2-Amino-4-phenyl-N-hydroxy-4H-benzo[h]chromene-3-carboxamidine]: the 50% growth inhibitory concentration (GI50) in the assay on A498 (read-out: GI50 5a) is 110 nM; in the assay with BT-549 (read-out: GI50 5a), 1250 nM; in the assay with CCRF-CEM (read-out: GI50 5a) it was 380 nM; with HCC-2998 (read-out: GI50 5a), 370 nM; with HOP-62 (read-out: GI50 5a) it was 380 nM; in the assay on HOP-92 (read-out: GI50 5a), 820 nM. Also, the GI50 in the assay with HS 578T (read-out: GI50 5a) came out at 230 nM; with LOX IMVI (read-out: GI50 5a), 540 nM; with M14 (read-out: GI50 5a), 130 nM; in the assay with MDA-MB-435 (read-out: GI50 5a) it was 30 nM; with MOLT-4 (read-out: GI50 5a), 430 nM; in the assay with NCI-H226 (read-out: GI50 5a), 8010 nM. Moreover, the GI50 came to 610 nM in the assay on OVCAR-5; 400 nM in the assay with OVCAR-8 (read-out: GI50 5a); 230 nM in the assay with PC-3 (read-out: GI50 5a); 1320 nM in the assay with SF-268 (read-out: GI50 5a); 28700 nM in the assay with SK-MEL-2 (read-out: GI50 5a).

With `CC(=O)NC1=C(C#N)C(c2ccccc2)c2ccc3ccccc3c2O1` (stereo not shown) [6a, N-(3-Cyano-4-phenyl-4H-benzo[h]chromen-2-yl)acetamide], the GI50 came out at 200 nM in the assay with A498 (read-out: GI50 6a); 990 nM in the assay with BT-549 (read-out: GI50 6a); 390 nM in the assay with CCRF-CEM (read-out: GI50 6a); 1430 nM with HCC-2998 (read-out: GI50 6a); 690 nM in the assay on HOP-62 (read-out: GI50 6a); 610 nM in the assay on HOP-92 (read-out: GI50 6a). The concentration for 50% growth inhibition (GI50) was 360 nM in the assay with HS 578T (read-out: GI50 6a); 600 nM in the assay on LOX IMVI (read-out: GI50 6a); 560 nM with M14 (read-out: GI50 6a); 230 nM in the assay on MDA-MB-435 (read-out: GI50 6a); 490 nM in the assay with MOLT-4 (read-out: GI50 6a); 1850 nM in the assay on NCI-H226 (read-out: GI50 6a). In addition, the GI50 in the assay with OVCAR-5 (read-out: GI50 6a) worked out at 2100 nM; in the assay on OVCAR-8 (read-out: GI50 6a), 630 nM; in the assay with PC-3 (read-out: GI50 6a), 460 nM; in the assay with SF-268 (read-out: GI50 6a) it was 930 nM; in the assay with SK-MEL-2 (read-out: GI50 6a), 650 nM.

The record behind these values is PMC9721423, “Novel benzo chromene derivatives: design, synthesis, molecular docking, cell cycle arrest, and apoptosis induction in human acute myeloid leukemia HL-60 cells” (Journal of Enzyme Inhibition and Medicinal Chemistry, 2022).
